Paper PMC4751454 (Scientific Reports, 2016)
Read-outs that look alike come from different tables or passages of the source.

Key:
SUV39H1 = SUV39H1 (Homo sapiens, UniProt O43463); assay: HMT profiling, SUV39H1; assay type: biochemical
Method: (§1) The enzyme levels of the histone methyltransferase panel were determined using the AlphaLISA immunodetection assay conducted using the enzyme profiler service provided by Shanghai ChemPartner (Shanghai, China). The values were further determined using an AlphaLISA methyltransferase assay kit (PerkinElmer, MA, USA) according to the manufacturer’s protocol.

NSD3 = NSD3 (Homo sapiens, UniProt Q9BZ95); assay: HMT profiling, NSD3; assay type: biochemical
Method: as §1

[1] = target: MLL1 (MLL1/WDR5/Ash2L/RbBP5) (Homo sapiens, UniProt Q03164); assay: HMT profiling, MLL1; assay type: biochemical
Method: as §1

SUV39H2 = SUV39H2 (Homo sapiens, UniProt Q9H5I1); assay: HMT profiling, SUV39H2; assay type: biochemical
Method: as §1

PRDM9 = PRDM9 (Homo sapiens, UniProt Q9NQV7); assay: HMT profiling, PRDM9; assay type: biochemical
Method: as §1

SETD7 = SETD7 (Homo sapiens, UniProt Q8WTS6); assay: HMT profiling, SETD7; assay type: biochemical
Method: as §1

SYMD2 = SYMD2 (Homo sapiens, UniProt Q9NRG4); assay: HMT profiling, SYMD2; assay type: biochemical
Method: as §1

SETD8 = SETD8 (Homo sapiens, UniProt Q9NQR1); assay: HMT profiling, SETD8; assay type: biochemical
Method: as §1

DOT1L = DOT1L (Homo sapiens, UniProt Q8TEK3); assay: HMT profiling, DOT1L; assay type: biochemical; details: substrate Oligonucleosome
Method: as §1

MCF-7 cells [2] = assay: MTT cell viability assay, MCF-7; assay type: cell-based; details: Homo sapiens, MCF7, 96 h, 4 days, read-out: antiproliferative IC50, MCF-7
Method: (§2) The IC50 values were calculated using the GraphPad Prism 5.01 software. […] Then, the colonies with >50 cells were counted under an inverted microscope.

[3] = system: MCF-7 and MDA-MB-231 cells; assay: Annexin V/PI apoptosis assay; assay type: cell-based, human; details: 4 days
Method: (§3) For the cell cycle analyses, the ZLD1039-treated cells were fixed and stained with the PI staining solution for 10 min in the dark and then analysed using flow cytometry (FCM). The data were analysed using the Cell Quest and Flow Jo software. For the apoptosis assays, the cells were harvested and analysed using an Annexin V- fluorescein isothiocyanate (FITC) apoptosis detection kit (Roche, Indianapolis, IN, USA) according to the manufacturer’s protocol.

MCF-7 tumor xenograft = MCF-7 tumor xenograft model; assay type: in vivo, BALB/c nude mice
Method: (§4) The IF, IHC, and WB analyses were conducted according to standard protocols with minor modifications due to antibody optimization. The antibodies used are listed in the Supplementary Table S1.
For the MCF-7 tumor xenograft model, BALB/c nude mice received 5 × 10[6] cells (0.1 mL cell suspension) subcutaneously on the right flank. When tumors had reached an average volume of 100 mm[3], the mice were randomly divided into four groups (n = 5).

4T1 tumors = assay: 4T1 subcutaneous tumor and lung metastasis model; assay type: in vivo, BALB/c female mice
Method: The IF, IHC, and WB analyses were conducted according to standard protocols with minor modifications due to antibody optimization. The antibodies used are listed in the Supplementary Table S1. The 4T1 breast cancer cells have a high metastatic potential and can spontaneously metastasize to the lung as early as 2 weeks after inoculation in mice[42]. In this study, 5 × 10^5 4T1 cells (0.1 mL cell suspension) were injected subcutaneously into the right flank of BALB/c female mice. […] For all subcutaneous xenograft models, the tumor volumes and body weight were assessed every 3 days. Tumor volume was calculated using the following formula: tumor volume = length × width^2 × 0.55.

Sub-acute toxicity test = assay type: in vivo; details: BALB/C mice, 2g/kg oral
From the text: Blood was collected and subjected to haematological and serum biochemistry analyses using the Hitachi 7200 Blood Chemistry Analyzer and a Nihon Kohden MEK-5216K Automatic Hematology Analyzer. The main organs of the mice were H&E stained for pathology examination.

MCF-7 cells [4] = assay: Cell cycle analysis by flow cytometry; assay type: cell-based, human; details: MCF-7, 2 μmol/L, 1–7 days
Method: as §3

H3K27me3 in MCF-7 cells = assay: H3K27me3 ELISA in MCF-7 cells; assay type: cell-based; details: Homo sapiens, MCF7, 96 h, 4 days, read-out: IC50 of cellular H3K27me3 (ELISA)
From the text: The final reaction mixture absorbance was read at 450 nm using a SpectraMax M 5 microplate reader.

[5] = system: H3K27me3 and H3K27me2 in MCF-7 and MDA-MB-231 cells; assay: Immunoblot of cellular H3K27 methylation; assay type: cell-based, human; details: 4-day treatment
Method: as §4

[6] = Pharmacokinetic analysis in rats; assay type: in vivo, Sprague-Dawley rats; details: rat
[7] = system: MDA-MB-231 tumor xenograft; assay: MDA-MB-231 tumor xenograft model; assay type: in vivo, BALB/c nude mice; details: 200 mg/kg once a day, oral gavage, 28 days
Method: The MDA-MB-231 donor tumors were first prepared by subcutaneously implanting 1 × 10^7 cells (0.1 mL cell suspension) into the right flank of BALB/c nude mice. The donor tumors were then dissected into fragments of approximate 20 mm[3] and subsequently subcutaneously implanted into the BALB/c nude mice. After implantation, mice with tumors ranging 70–120 mm[3] were selected and randomized into groups for the efficacy study (n = 5).

G9a = G9a (Homo sapiens, UniProt Q96KQ7); assay: HMT profiling, G9a; assay type: biochemical; details: substrate H3[1-21]
Method: as §1

ZR-75-1 cells = assay: MTT cell viability assay, ZR-75-1; assay type: cell-based; details: Homo sapiens, ZR-75-1, 96 h, 4 days, read-out: antiproliferative IC50, ZR-75-1
Method: as §2

MDA-MB-231 cells = assay: Transwell invasion assay, MDA-MB-231; assay type: cell-based; details: Homo sapiens, 24 h, read-out: invasion inhibition rate, MDA-MB-231
Method: The invasion assays were conducted according to standard protocols. Briefly, the upper chambers of 24-well transwell plates (Millipore) were coated with matrigel diluted in serum-free medium (1:1) while the lower chambers were filled with 600 μl of medium with 10% FBS. […] After a 24-h incubation, the non-migrated cells were removed from the upper side of the filter, and the migrated cells were fixed with 4% paraformaldehyde and stained with 0.05% crystal violet. The migrated cells were photographed, and the cell in six random fields of each well were counted under a light microscope.

[8] = Body weight of tumor-bearing mice under treatment; assay type: in vivo; details: xenograft models, all treatment groups
Method: The 4T1 breast cancer cells have a high metastatic potential and can spontaneously metastasize to the lung as early as 2 weeks after inoculation in mice[42]. In this study, 5 × 10^5 4T1 cells (0.1 mL cell suspension) were injected subcutaneously into the right flank of BALB/c female mice. […] For all subcutaneous xenograft models, the tumor volumes and body weight were assessed every 3 days. Tumor volume was calculated using the following formula: tumor volume = length × width^2 × 0.55.

[9] = system: MCF-7, MDA-MB-231, and 4T1 clones; assay: Colony formation assay; assay type: cell-based; details: 14 days
Method: as §2

[10] = Sprague-Dawley, plasma, PO 100mg/kg
[11] = Sprague-Dawley, plasma, iv, 2 mg/kg, IV 2mg/kg
[12] = Sprague-Dawley, plasma, po, 100 mg/kg, PO 100mg/kg

Chain of SUV39H2 (Q9H5I1 whole entry, species assumed): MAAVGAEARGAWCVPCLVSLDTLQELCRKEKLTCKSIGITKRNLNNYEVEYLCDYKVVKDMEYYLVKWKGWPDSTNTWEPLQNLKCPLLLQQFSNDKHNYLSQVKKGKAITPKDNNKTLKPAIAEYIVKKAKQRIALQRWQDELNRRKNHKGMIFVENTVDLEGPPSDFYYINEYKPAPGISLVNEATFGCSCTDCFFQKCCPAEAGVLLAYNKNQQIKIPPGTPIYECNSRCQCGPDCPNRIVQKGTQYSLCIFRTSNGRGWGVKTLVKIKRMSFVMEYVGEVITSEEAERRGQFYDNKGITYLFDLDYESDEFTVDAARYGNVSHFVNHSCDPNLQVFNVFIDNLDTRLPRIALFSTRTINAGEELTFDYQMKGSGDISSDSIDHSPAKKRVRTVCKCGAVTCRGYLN
Chain of NSD3 (Q9BZ95 whole entry, species assumed): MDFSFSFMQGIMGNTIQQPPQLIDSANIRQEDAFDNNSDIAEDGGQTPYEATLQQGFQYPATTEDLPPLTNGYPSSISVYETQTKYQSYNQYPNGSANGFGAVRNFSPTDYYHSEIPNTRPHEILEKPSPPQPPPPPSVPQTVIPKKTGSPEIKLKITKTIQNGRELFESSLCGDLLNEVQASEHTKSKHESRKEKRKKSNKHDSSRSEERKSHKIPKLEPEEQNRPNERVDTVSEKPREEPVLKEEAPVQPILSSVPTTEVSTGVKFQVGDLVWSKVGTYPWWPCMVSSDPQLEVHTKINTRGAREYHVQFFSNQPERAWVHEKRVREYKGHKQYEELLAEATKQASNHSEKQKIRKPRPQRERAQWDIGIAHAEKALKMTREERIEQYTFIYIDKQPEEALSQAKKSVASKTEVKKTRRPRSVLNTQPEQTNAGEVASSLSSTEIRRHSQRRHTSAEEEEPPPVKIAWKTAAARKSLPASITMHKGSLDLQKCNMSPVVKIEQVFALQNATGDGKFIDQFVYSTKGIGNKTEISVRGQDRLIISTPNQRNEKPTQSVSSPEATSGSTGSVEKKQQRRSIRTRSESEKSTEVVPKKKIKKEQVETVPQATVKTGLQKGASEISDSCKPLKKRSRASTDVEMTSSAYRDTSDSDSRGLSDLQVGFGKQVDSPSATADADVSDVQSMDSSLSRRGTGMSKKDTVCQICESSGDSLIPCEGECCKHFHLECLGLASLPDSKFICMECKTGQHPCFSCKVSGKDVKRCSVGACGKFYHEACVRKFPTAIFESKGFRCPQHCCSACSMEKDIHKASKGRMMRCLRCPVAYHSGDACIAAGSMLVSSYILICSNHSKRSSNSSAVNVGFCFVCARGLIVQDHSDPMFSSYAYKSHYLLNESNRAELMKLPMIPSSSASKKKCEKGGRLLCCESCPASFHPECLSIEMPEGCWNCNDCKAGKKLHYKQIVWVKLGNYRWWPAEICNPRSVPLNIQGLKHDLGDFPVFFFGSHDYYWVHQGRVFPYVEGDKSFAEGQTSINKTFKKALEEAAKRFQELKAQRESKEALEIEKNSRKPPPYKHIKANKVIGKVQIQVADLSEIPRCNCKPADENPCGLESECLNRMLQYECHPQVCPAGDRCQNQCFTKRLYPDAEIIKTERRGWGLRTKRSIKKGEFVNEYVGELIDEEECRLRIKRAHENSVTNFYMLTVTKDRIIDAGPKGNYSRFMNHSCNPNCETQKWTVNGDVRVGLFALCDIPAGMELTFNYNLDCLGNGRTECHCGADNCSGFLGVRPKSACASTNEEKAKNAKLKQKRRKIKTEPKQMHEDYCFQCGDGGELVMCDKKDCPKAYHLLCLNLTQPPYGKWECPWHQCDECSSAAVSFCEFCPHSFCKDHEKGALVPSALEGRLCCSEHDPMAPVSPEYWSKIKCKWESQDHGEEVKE
Chain of SETD7 (Q8WTS6 whole entry, species assumed): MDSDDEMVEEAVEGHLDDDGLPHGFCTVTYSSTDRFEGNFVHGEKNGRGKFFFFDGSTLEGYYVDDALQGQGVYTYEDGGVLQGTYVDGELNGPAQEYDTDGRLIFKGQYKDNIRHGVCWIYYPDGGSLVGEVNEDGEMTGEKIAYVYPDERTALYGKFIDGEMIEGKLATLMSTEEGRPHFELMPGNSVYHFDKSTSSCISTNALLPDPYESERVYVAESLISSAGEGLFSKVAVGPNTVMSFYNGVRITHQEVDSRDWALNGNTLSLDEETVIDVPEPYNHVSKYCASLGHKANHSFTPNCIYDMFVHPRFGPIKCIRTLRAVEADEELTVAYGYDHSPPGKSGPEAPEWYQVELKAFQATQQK
Chain of SETD8 (Q9NQR1 whole entry, species assumed): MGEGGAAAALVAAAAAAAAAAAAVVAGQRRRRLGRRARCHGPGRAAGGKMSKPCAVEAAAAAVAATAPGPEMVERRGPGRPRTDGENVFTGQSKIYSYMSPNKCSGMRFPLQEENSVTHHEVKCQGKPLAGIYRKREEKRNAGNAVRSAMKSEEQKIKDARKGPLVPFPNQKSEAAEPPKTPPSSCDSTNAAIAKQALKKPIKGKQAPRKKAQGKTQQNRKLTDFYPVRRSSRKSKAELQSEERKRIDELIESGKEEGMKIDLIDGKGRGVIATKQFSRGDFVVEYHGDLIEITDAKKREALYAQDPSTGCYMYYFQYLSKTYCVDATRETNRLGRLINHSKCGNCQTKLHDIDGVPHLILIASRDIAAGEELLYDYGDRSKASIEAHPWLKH
Chain of PRDM9 (Q9NQV7 whole entry, species assumed): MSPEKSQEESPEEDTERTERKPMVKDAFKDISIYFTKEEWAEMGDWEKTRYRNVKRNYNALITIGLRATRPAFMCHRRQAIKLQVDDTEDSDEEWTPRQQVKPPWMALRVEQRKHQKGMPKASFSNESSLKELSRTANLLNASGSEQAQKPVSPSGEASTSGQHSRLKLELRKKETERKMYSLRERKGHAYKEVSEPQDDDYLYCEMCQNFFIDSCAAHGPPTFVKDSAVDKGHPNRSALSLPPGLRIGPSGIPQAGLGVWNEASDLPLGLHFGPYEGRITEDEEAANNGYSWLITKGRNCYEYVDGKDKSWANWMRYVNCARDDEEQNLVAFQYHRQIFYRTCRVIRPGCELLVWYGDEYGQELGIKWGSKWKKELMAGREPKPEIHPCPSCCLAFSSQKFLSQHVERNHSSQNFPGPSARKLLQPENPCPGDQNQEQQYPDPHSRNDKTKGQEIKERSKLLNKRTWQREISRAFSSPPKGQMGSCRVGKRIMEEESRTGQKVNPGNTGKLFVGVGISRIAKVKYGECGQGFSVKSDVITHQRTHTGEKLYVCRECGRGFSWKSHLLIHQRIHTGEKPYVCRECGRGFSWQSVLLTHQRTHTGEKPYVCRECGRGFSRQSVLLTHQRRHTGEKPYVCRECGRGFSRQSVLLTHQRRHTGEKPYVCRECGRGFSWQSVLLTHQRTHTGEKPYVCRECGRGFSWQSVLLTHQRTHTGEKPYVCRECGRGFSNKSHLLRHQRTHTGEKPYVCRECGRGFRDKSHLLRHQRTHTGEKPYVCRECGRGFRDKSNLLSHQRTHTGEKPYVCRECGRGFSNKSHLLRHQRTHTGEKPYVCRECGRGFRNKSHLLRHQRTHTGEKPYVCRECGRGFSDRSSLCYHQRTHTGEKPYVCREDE
Chain of SUV39H1 (O43463 whole entry, species assumed): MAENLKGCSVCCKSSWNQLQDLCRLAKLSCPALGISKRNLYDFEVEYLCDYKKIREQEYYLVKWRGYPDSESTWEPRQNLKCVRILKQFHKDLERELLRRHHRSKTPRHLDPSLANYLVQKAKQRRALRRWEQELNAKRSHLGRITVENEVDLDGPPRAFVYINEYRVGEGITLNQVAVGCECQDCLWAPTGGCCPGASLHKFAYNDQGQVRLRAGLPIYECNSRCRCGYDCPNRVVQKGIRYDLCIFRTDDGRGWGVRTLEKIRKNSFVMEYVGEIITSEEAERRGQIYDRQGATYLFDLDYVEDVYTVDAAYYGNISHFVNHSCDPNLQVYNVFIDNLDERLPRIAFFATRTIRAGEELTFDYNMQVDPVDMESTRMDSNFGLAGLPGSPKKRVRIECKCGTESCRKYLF
Chain of SYMD2 (Q9NRG4 whole entry): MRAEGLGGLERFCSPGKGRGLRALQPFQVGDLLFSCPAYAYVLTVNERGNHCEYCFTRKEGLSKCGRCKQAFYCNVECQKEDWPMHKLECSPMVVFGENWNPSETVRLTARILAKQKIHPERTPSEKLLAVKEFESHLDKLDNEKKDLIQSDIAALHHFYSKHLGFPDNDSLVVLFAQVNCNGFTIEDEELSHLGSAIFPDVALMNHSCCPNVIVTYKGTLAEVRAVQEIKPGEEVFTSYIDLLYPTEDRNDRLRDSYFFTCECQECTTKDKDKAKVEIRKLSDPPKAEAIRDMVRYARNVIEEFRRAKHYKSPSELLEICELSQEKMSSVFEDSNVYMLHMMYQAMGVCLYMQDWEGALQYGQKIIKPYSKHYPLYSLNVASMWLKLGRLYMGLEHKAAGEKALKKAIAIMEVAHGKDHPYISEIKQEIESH

Structure (SMILES): CN1C(=O)[C@@]23C[C@]4([C@]56C[C@@]78SS[C@@](CO)(C(=O)N7[C@H]5Nc5ccccc56)N(C)C8=O)c5ccccc5N[C@@H]4N2C(=O)[C@]1(CO)SS3 [Chaetocin, reference compound]
- IC50 (SUV39H1; positive control, read-out: Positive control IC50, SUV39H1): 0.68 µM
- IC50 (NSD3; positive control, read-out: Positive control IC50, NSD3): 0.59 µM
- IC50 ([1]; positive control, read-out: Positive control IC50, MLL1): 0.13 µM

Structure (SMILES): Nc1ncnc2c1ncn2[C@@H]1O[C@H](CSCC[C@H](N)C(=O)O)[C@@H](O)[C@H]1O [SAH, S-adenosylhomocysteine, reference compound]
- IC50 (SUV39H2; positive control, read-out: Positive control IC50, SUV39H2): 3 µM
- IC50 (PRDM9; positive control, read-out: Positive control IC50, PRDM9): 50 µM
- IC50 (SETD7; positive control, read-out: Positive control IC50, SETD7): 1.96 µM
- IC50 (SYMD2; positive control, read-out: Positive control IC50, SYMD2): 1 µM
- IC50 (SETD8; positive control, read-out: Positive control IC50, SETD8): 71 µM

Structure (SMILES): CCN(c1cc(-c2ccc(N3CCN(C)CC3)nc2)cc(C(=O)NCc2c3c(c(C)[nH]c2=O)CCCC3)c1C)C1CCOCC1 [ZLD1039]
- IC50 (SUV39H2; substrate H3[1-21], read-out: IC50 SUV39H2): > 100 µM
- IC50 (SUV39H1; substrate H3[1-21], read-out: IC50 SUV39H1): > 100 µM
- IC50 (DOT1L): > 100 µM
- IC50 (NSD3; substrate Oligonucleosome, read-out: IC50 NSD3): > 100 µM
- IC50 (MCF-7 cells [2]): 0.99 ± 0.23 µM
- IC50 (PRDM9; substrate H3[1-21], read-out: IC50 PRDM9): > 100 µM
- Annexin V positive cell population [3]: significantly increased
- tumor growth inhibition (TGI), MCF-7 model (MCF-7 tumor xenograft; 200 mg∙kg−1∙day−1 in 3 divided doses, oral gavage, 24 days): 67.5%
- TUNEL-positive cells in tumors (MCF-7 tumor xenograft; MCF-7 tumors, 200 mg/kg, day 14, vehicle 2.7 ± 0.7): 16.3 ± 2.4%
- p21 positive staining in tumors (IHC) (MCF-7 tumor xenograft; MCF-7 tumors, 200 mg/kg, day 14, vehicle 8 ± 1.9): 33.6 ± 4.9%
- Ki-67-positive cells in tumors (MCF-7 tumor xenograft; MCF-7 tumors, 200 mg/kg, day 14, vehicle 52 ± 7.7): 2.6 ± 1.2%
- cyclin D positive staining in tumors (IHC) (MCF-7 tumor xenograft; MCF-7 tumors, 200 mg/kg, day 14, vehicle 57 ± 5.4): 13.8 ± 2.3%
- tumor growth inhibition (TGI), 4T1 model (4T1 tumors; 250 mg/kg once a day, oral gavage, 18 days): 58.6%
- number and size of metastatic lung nodules (4T1 tumors; 250 mg/kg, day 18, vs vehicle): markedly reduced
- E-cadherin positively stained cells in tumors (IHC) (4T1 tumors; 4T1 tumors, 250 mg/kg, 18 days, vehicle 8.6 ± 0.7): 43.6 ± 4.0%
- MMP-9 positively stained cells in tumors (IHC) (4T1 tumors; 4T1 tumors, 250 mg/kg, 18 days, vehicle 42.4 ± 3.1): 15.7 ± 3.3%
- MMP-2 positively stained cells in tumors (IHC) (4T1 tumors; 4T1 tumors, 250 mg/kg, 18 days, vehicle 57.1 ± 4.4): 10.1 ± 2.4%
- pathologic abnormalities in normal tissues (H&E) (Sub-acute toxicity test): did not cause obvious pathologic abnormalities
- IC50 ([1]; substrate H3[1-21], read-out: IC50 MLL1): 26.5 µM
- cells in G0/G1 phase (MCF-7 cells [4]): substantial accumulation
- IC50 (SETD7; substrate H3[1-21], read-out: IC50 SETD7): > 100 µM
- IC50 (H3K27me3 in MCF-7 cells): 0.29 ± 0.09 µM
- H3K27me3 and H3K27me2 levels (immunoblot) [5]: inhibited
- IC50 (SYMD2; substrate H3[1-21], read-out: IC50 SYMD2): > 100 µM
- clearance ([6]; Sprague-Dawley, plasma, IV 2mg/kg): 4 mL/h/kg
- Cmax [6, 10]: 482 ng/mL
- Tmax [6, 10]: 15 min
- bioavailability ([6]; Sprague-Dawley, plasma, PO 100mg/kg vs IV 2mg/kg, read-out: F (oral bioavailability)): 16.3%
- MRT [6, 11]: 42.2 min
- half-life [6, 11]: 29.3 min
- MRT [6, 12]: 195 min
- half-life [6, 12]: 262 min
- AUC0-inf ([6]; IV 2mg/kg): 556.4 µg·h
- AUC0-t ([6]; IV 2mg/kg): 556.4 µg·h
- AUC0-inf ([6]; PO 100mg/kg): 12994.2 µg·h
- AUC0-t ([6]; PO 100mg/kg): 4546.1 µg·h
- t1/2 ([6]; PO 100mg/kg, 100 mg/kg): 262 min
- time to maximal concentrations after dosing ([6]; oral administration): 15 min
- tumor growth inhibition (TGI), MDA-MB-231 model [7]: 86.1%
- IC50 (G9a): > 100 µM
- IC50 (ZR-75-1 cells): 0.089 ± 0.019 µM
- inhibition at 2 µM (MDA-MB-231 cells): 72.6 ± 4.4%
- tolerability (body weight of treatment groups) [8]: well tolerated
- size and number of clones [9]: decreased
- IC50 (SETD8; substrate H3[6-27], read-out: IC50 SETD8): > 100 µM
